Patent publication EP3572411A1, “THIAZOLE DERIVATIVES AS METALLO-BETA-LACTAMASE INHIBITORS” (Antabio SAS, priority 2018, dated 2019)
Where two headings read alike, the source gives them in different places.

Experiments:
VIM-2 = target: T1, VIM-2 (Escherichia coli, UniProt Q5U7L7); assay: In vitro enzyme inhibition assay (imipenem hydrolysis, UV 299 nm); format: biochemical
T1 construct: VIM-1; VIM-2
Experimental: (§1) In vitro enzyme inhibition assays: Enzyme inhibition assays are performed using purified MBL enzymes (NDM-1; VIM-1; VIM-2; IMP-1) in 10mM HEPES buffer pH 7.5 in 96-well microtiter plates. Imipenem (300µM) is used as substrates and its hydrolysis is followed at UV 299 nm during 10mn every 30 seconds using a Perkin Elmer Envision UV fluorescence plate reader. Hydrolysis rate data in presence of a range of inhibitors are analysed using Dotmatics database software and calculated IC50 values are converted to Ki values using the Cheng-Prusoff equation. Ki = IC50 / (1+([S]/Km) and where the Km values for […] are 70 µM, 1.5 µM, 9 µM and 25 µM respectively. Compound dilution is performed in DMSO. Mean Ki values from multiple experiments are presented. Results are shown in Table 1.

NDM-1 = target: T2, NDM-1 (Klebsiella pneumoniae, UniProt C7C422); assay: as above; format: biochemical
T2 construct: VIM-1; VIM-2
Experimental: as §1

IMP-1 = target: T3, IMP-1 (Serratia marcescens, UniProt P52699); assay: as above; format: biochemical
T3 construct: VIM-1; VIM-2
Experimental: as §1

VIM-1 = target: T4, VIM-1 (Pseudomonas aeruginosa, UniProt A0A0F7KYQ8); assay: as above; format: biochemical
T4 construct: VIM-1; VIM-2; IMP-1)
Experimental: as §1

[1] = system: NTBC062 (K. pneumoniae strain expressing IMP-1 and TEM-1); assay: Antimicrobial susceptibility testing (broth micro-dilution, Meropenem potentiation); format: cell-based; conditions: MIC of Meropenem with compound at constant 8 µg/mL; CAMHB, 18-20 hours, 37°C
Experimental: (§2) Antimicrobial susceptibility testing: The operation is carried out using the 'broth micro-dilution method' according to the protocols M07-A8 established by the Clinical Laboratory Standards Institute (CLSI). Serial dilutions of the β-lactam antibiotic (Meropenem) are prepared in 96-well plates in cation-adjusted Mueller-Hinton broth (CAMHB); the concentration range is defined from 0.03 mg/L to 512 mg/L. The compounds are added at a constant concentration of 8 µg/mL. A bacterial inoculum of each strain (clinical isolates) is adjusted to a 0.5 McFarland turbidity standard in physiologic serum (0.9 % NaCl), then diluted 1:100 in CAMHB and added to each well to give a final bacterial cell number of 5x10^5 CFU/well. After incubation for 18-20 hours in a heating chamber at 37°C, the growth inhibition is evaluated by the absence of any bacterial development.
(§3) The compounds of Table 2 are added at a constant concentration of 8 µg/mL. The clinical strains used in these potentiation experiments are NTBC020 (E. coli strain expressing NDM-1, TEM-1 and CTX-M-15); NTBC035-2 (K. pneumoniae strain expressing NDM-1, CMY-4 and SHV-11); NTBC104-1 (K. pneumoniae strain expressing NDM-1 and SHV-11); NTBC123 (K. pneumoniae strain expressing NDM-1); NTBC018 (C. freundii strain expressing VIM-2); NTBC024 (K. pneumoniae strain expressing VIM-19, TEM-1 and CTX-M-3); NTBC042 (E. coli strain expressing VIM-1, TEM-1 , CTX-M-15, SHV-12); NTBC055 (E. Coli strain expressing VIM-1); NTBC062 (K. pneumoniae strain expressing IMP-1 and TEM-1) and NTBC039 (K. oxytoca strain expressing IMP-28). • For NDM-1 the Ki values of < 0.05 µM are designated (A); Ki values of 0.05 - 0.2 µM are designated (B); Ki values of 0.2 - 0.4 µM are designated (C). • For VIM-1 the Ki values of < 0.2 µM are designated (A); Ki values of 0.2 - 0.5 µM are designated (B); Ki values of 0.5 - 0.8 µM are designated (C). • For VIM-2 the Ki values of < 0.02 µM are designated (A); Ki values of 0.02 - 0.05 µM are designated (B); Ki values of 0.05 - 0.2 µM are designated (C). • For IMP-1 the Ki values of < 0.5 µM are designated (A); Ki values of 0.5 - 1 µM are designated (B); Ki values of 1 - 8 µM are designated (C). • MIC values of < 1 µg/mL are designated (A); MIC values of 1 - 2 µg/mL are designated (B); • MIC values of 2 - 128 µg/mL are designated (C). Table 1. Ki results

[2] = system: NTBC055 (E. Coli strain expressing VIM-1); assay: as above; format: cell-based; conditions: MIC of Meropenem with compound at constant 8 µg/mL; CAMHB, 18-20 hours, 37°C
Experimental: as §2, §3

[3] = system: NTBC018 (C. freundii strain expressing VIM-2); assay: as above; format: cell-based; conditions: MIC of Meropenem with compound at constant 8 µg/mL; CAMHB, 18-20 hours, 37°C
Experimental: as §2, §3

[4] = system: NTBC020 (E. coli strain expressing NDM-1, TEM-1 and CTX-M-15); assay: as above; format: cell-based; conditions: MIC of Meropenem with compound at constant 8 µg/mL; CAMHB, 18-20 hours, 37°C
Experimental: as §2, §3

[5] = system: NTBC035-2 (K. pneumoniae strain expressing NDM-1, CMY-4 and SHV-11); assay: as above; format: cell-based; conditions: MIC of Meropenem with compound at constant 8 µg/mL; CAMHB, 18-20 hours, 37°C
Experimental: as §2, §3

[6] = system: NTBC039 (K. oxytoca strain expressing IMP-28); assay: as above; format: cell-based; conditions: MIC of Meropenem with compound at constant 8 µg/mL; CAMHB, 18-20 hours, 37°C
Experimental: as §2, §3

[7] = system: NTBC104-1 (K. pneumoniae strain expressing NDM-1 and SHV-11); assay: as above; format: cell-based; conditions: MIC of Meropenem with compound at constant 8 µg/mL; CAMHB, 18-20 hours, 37°C
Experimental: as §2, §3

[8] = system: NTBC042 (E. coli strain expressing VIM-1, TEM-1 , CTX-M-15, SHV-12); assay: as above; format: cell-based; conditions: MIC of Meropenem with compound at constant 8 µg/mL; CAMHB, 18-20 hours, 37°C
Experimental: as §2, §3

[9] = system: NTBC123 (K. pneumoniae strain expressing NDM-1); assay: as above; format: cell-based; conditions: MIC of Meropenem with compound at constant 8 µg/mL; CAMHB, 18-20 hours, 37°C
Experimental: as §2, §3

[10] = system: NTBC024 (K. pneumoniae strain expressing VIM-19, TEM-1 and CTX-M-3); assay: as above; format: cell-based; conditions: MIC of Meropenem with compound at constant 8 µg/mL; CAMHB, 18-20 hours, 37°C
Experimental: as §2, §3

[11] = purified enzyme, 10mM HEPES pH 7.5, Imipenem 300µM; mean Ki from IC50 by Cheng-Prusoff; read-out: Ki (µM) VIM-2
[12] = purified enzyme, 10mM HEPES pH 7.5, Imipenem 300µM; mean Ki from IC50 by Cheng-Prusoff; read-out: Ki (µM) NDM-1
[13] = purified enzyme, 10mM HEPES pH 7.5, Imipenem 300µM; mean Ki from IC50 by Cheng-Prusoff; read-out: Ki (µM) IMP-1
[14] = purified enzyme, 10mM HEPES pH 7.5, Imipenem 300µM; mean Ki from IC50 by Cheng-Prusoff; read-out: Ki (µM) VIM-1
[15] = read-out: Ki (µM) VIM-2; purified enzyme, 10mM HEPES pH 7.5, Imipenem 300µM; mean Ki from IC50 by Cheng-Prusoff
[16] = read-out: Ki (µM) NDM-1; purified enzyme, 10mM HEPES pH 7.5, Imipenem 300µM; mean Ki from IC50 by Cheng-Prusoff
[17] = read-out: Ki (µM) IMP-1; purified enzyme, 10mM HEPES pH 7.5, Imipenem 300µM; mean Ki from IC50 by Cheng-Prusoff
[18] = read-out: Ki (µM) VIM-1; purified enzyme, 10mM HEPES pH 7.5, Imipenem 300µM; mean Ki from IC50 by Cheng-Prusoff

T3 sequence (P52699 19-246, looked up, species assumed): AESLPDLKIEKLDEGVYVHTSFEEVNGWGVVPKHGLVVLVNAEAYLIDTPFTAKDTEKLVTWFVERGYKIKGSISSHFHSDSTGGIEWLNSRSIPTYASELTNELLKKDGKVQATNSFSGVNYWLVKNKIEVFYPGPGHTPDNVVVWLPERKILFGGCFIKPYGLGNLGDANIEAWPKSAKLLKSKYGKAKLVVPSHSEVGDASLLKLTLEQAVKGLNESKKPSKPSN
T2 sequence (C7C422 29-270, looked up): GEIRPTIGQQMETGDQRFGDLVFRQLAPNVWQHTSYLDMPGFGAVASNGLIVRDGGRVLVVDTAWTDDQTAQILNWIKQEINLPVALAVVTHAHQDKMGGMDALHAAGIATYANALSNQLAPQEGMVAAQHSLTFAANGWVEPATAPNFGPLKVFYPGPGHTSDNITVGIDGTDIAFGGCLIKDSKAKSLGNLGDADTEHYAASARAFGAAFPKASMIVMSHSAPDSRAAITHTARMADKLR

| Compound | Ki (VIM-2; [11]) [µM] | Ki (NDM-1; [12]) [µM] | Ki (IMP-1; [13]) [µM] | Ki (VIM-1; [14]) [µM] | MIC Strain NTBC062 [1] | MIC Strain NTBC055 [2] | MIC Strain NTBC018 [3] | MIC Strain NTBC020 [4] | MIC Strain NTBC035-2 [5] | MIC Strain NTBC039 [6] | MIC Strain NTBC104-1 [7] | MIC Strain NTBC042 [8] | MIC Strain NTBC123 [9] | MIC Strain NTBC024 [10] | Ki (VIM-2; [15]) [µM] | Ki (NDM-1; [16]) [µM] | Ki (IMP-1; [17]) [µM] | Ki (VIM-1; [18]) [µM] |
| --- | --- | --- | --- | --- | --- | --- | --- | --- | --- | --- | --- | --- | --- | --- | --- | --- | --- | --- |
| 3-(3-carbamimidamidopropyl)-1-[({4-[(4-carboxy-1,3-thiazol-5-yl)sulfamoyl]-2-fluorophenyl}carbamoyl)methyl]-1H-imidazol-3-ium [Example 17] | < 0.02 | < 0.05 | 1 to 8 | < 0.2 | (B) (MIC values of 1 - 2 µg/mL are designated (B)) | (B) (MIC values of 1 - 2 µg/mL are designated (B)) | (A) (MIC values of < 1 µg/mL are designated (A)) | (C) (MIC values of 2 - 128 µg/mL are designated (C)) | (B) (MIC values of 1 - 2 µg/mL are designated (B)) | (C) (MIC values of 2 - 128 µg/mL are designated (C)) | (C) (MIC values of 2 - 128 µg/mL are designated (C)) | d(B) (MIC values of 1 - 2 µg/mL are designated (B)) | (C) (MIC values of 2 - 128 µg/mL are designated (C)) | (B) (MIC values of 1 - 2 µg/mL are designated (B)) |  |  |  |  |
| 3-[({4-[(4-carboxy-1,3-thiazol-5-yl)sulfamoyl]-2-fluorophenyl}carbamoyl)methyl]-1-[2-(trimethylammonio)ethyl]imidazol-1-ium [Example 21] | < 0.02 | < 0.05 | 1 to 8 | < 0.2 | (B) (MIC values of 1 - 2 µg/mL are designated (B)) | (B) (MIC values of 1 - 2 µg/mL are designated (B)) | (B) (MIC values of 1 - 2 µg/mL are designated (B)) | (C) (MIC values of 2 - 128 µg/mL are designated (C)) | (C) (MIC values of 2 - 128 µg/mL are designated (C)) | (B) (MIC values of 1 - 2 µg/mL are designated (B)) | (B) (MIC values of 1 - 2 µg/mL are designated (B)) | (B) (MIC values of 1 - 2 µg/mL are designated (B)) | (C) (MIC values of 2 - 128 µg/mL are designated (C)) | (C) (MIC values of 2 - 128 µg/mL are designated (C)) |  |  |  |  |
| C[n+]1ccn(CC(=O)Nc2c(F)cc(S(=O)(=O)Nc3scnc3C(=O)[O-])cc2F)n1 [Example 23, 1-[({4-[(4-carboxy-1,3-thiazol-5-yl)sulfamoyl]-2,6-difluorophenyl}carbamoyl)methyl]-3-methyl-1H-1,2,3-triazol-3-ium] |  |  |  |  |  |  |  |  |  |  |  |  |  |  | 0.05 to 0.2 | 0.05 to 0.2 | 1 to 8 | 0.2 to 0.5 |
| CC[n+]1ccn(CC(=O)Nc2ccc(S(=O)(=O)Nc3scnc3C(=O)[O-])cc2F)n1 [Example 24, 1-[({4-[(4-carboxy-1,3-thiazol-5-yl)sulfamoyl]-2-fluorophenyl}carbamoyl)methyl]-3-ethyl-1H-1,2,3-triazol-3-ium] |  |  |  |  |  |  |  |  |  |  |  |  |  |  | 0.05 to 0.2 | 0.05 to 0.2 | 0.5 to 1 | 0.2 to 0.5 |
| C[n+]1cnn(CC(=O)Nc2ccc(S(=O)(=O)Nc3scnc3C(=O)[O-])cc2F)c1 [Example 25, 1-[({4-[(4-carboxy-1,3-thiazol-5-yl)sulfamoyl]-2-fluorophenyl}carbamoyl)methyl]-4-methyl-1H-1,2,4-triazol-4-ium] |  |  |  |  |  |  |  |  |  |  |  |  |  |  | 0.05 to 0.2 | 0.05 to 0.2 | 1 to 8 | 0.2 to 0.5 |
| C[n+]1nnn(CC(=O)Nc2ccc(S(=O)(=O)Nc3scnc3C(=O)[O-])cc2F)c1N [Example 26, 5-amino-1-[({4-[(4-carboxy-1,3-thiazol-5-yl)sulfamoyl]-2-fluorophenyl}carbamoyl)methyl]-4-methyl-1H-1,2,3,4-tetrazol-4-ium] |  |  |  |  |  |  |  |  |  |  |  |  |  |  | 0.05 to 0.2 | < 0.05 | 0.5 to 1 | 0.2 to 0.5 |
